Laboratory results reported in paper PMC10698726 (Molecular Pharmaceutics, 2023).
Where two headings read alike, the source gives them in different places.

How the values were obtained:
OCT2 = target: T1, OCT2 (Homo sapiens, UniProt O15244); experiment: Inhibition of model substrate uptake in OCT2-overexpressing HEK293 cells
T1 sequence (O15244 1-555): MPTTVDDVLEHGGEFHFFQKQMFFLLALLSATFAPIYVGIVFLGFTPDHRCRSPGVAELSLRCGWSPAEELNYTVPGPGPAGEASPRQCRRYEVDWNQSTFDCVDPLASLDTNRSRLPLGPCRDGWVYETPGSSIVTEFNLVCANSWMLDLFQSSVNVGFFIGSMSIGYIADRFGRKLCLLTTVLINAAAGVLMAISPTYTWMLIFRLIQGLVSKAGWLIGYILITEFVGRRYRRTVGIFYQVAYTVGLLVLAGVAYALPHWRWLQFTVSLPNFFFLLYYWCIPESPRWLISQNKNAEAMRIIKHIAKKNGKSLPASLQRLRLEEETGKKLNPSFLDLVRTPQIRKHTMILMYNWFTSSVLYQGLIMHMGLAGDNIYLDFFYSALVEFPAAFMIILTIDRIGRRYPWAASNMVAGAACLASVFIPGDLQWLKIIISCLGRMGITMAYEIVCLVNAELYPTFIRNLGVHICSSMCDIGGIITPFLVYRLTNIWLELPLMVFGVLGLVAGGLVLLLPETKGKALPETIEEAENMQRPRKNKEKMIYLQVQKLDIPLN
Experimental: (§1) All experiments were carried out in transporter-overexpressing HEK293 cells. OCT1-, OCT2-, NET-, DAT-, and SERT-overexpressing cells as well as the empty-vector transfected control cell line were generated as described earlier,[26]−[28] whereas the OCT3-overexpressing HEK293 cells were generous gift of from Drs. Koepsell and Gorbulev (University of Würzburg, Germany). All cells were cultivated in Dulbecco’s modified Eagle’s medium (DMEM) supplemented with 10% (v/v) FCS, penicillin (100 U/mL), and streptomycin (100 μg/mL) and kept in culture for no longer than 30 passages.
(§2) As for the transport experiments, 300,000 HEK293 cells were plated in poly-D-lysine-coated 24-well plates 2 days ahead of the experiment. On every plate, two wells of empty vector (EV)-transfected cells were used as a control to account for the passive influx of the model substrate, and two wells of transporter-overexpressing cells were used to determine the noninhibited uptake of the model substrate. Cells were initially washed once with 37 °C HBSS+ and then incubated with 2 μM model substrate (0.2 μM for MPP^+ uptake by MATs) with and without 20 μM inhibitor for 5 min. For concentration-dependent inhibition experiments, the cells were incubated with increasing inhibitor concentrations. The incubation was terminated by aspiration of the buffer before cells were washed twice with ice-cold HBSS+ and lysed in 80% acetonitrile. Cell lysates were transferred into a black 96-well plate for the fluorescence measurement of ASP^+ or used for sample preparation for LC–MS/MS analysis. […] Fluorescence quantification was performed in technical duplicates.
(§3) Transporter-mediated net uptake was calculated as the difference between uptake in transporter-overexpressing cells and that in the empty-vector-transfected control. […] Vmax is the maximum transport velocity, while Km is defined as the substance concentration that is required to reach half of vmax. The ratio of vmax over Km is termed intrinsic clearance Clint. For inhibition experiments, the transport activity was calculated by using the following equation [drawing 1]
(§4) SubstrateEV refers to the passive uptake of model substrates into the control cells and substratenoninhibited is the uptake in transporter-overexpressing cells without the presence of any inhibitor. The percent inhibition values are then calculated as described in the following [drawing 2]
(§5) For concentration inhibition experiments, the transporter activity was plotted against the log10 of inhibitor concentrations, and the data were fitted by the following equation to determine IC50 values [drawing 3]
(§6) Y refers to the transporter activity, whereas Ymax is the maximum and Ymin is the minimal transporter activity. X is the log10 of inhibitor concentrations, IC50 is the half-maximal inhibitory concentration, and hill slope is the slope factor.

OCT3 = target: T2, OCT3 (Homo sapiens, UniProt O75751); experiment: Inhibition of model substrate uptake in OCT3-overexpressing HEK293 cells; format: cell-based
T2 construct: expressed in transfected cells; host or cells: HEK293
T2 sequence (O75751 1-556): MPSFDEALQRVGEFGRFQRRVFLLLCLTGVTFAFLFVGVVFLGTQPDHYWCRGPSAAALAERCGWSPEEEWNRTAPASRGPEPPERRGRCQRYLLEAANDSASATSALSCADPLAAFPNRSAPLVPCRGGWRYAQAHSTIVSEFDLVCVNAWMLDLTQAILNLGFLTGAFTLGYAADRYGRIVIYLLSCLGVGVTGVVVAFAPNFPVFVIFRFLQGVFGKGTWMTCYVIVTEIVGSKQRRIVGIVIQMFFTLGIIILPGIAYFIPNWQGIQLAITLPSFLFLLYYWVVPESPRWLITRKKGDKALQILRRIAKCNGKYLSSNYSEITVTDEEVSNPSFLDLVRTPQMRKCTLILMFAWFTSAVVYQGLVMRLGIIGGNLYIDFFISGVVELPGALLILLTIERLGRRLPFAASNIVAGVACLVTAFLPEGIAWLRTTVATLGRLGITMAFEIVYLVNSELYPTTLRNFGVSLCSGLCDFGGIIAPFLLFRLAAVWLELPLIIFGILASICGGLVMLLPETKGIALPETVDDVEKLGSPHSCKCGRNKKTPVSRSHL
Experimental: as §1, §2, §3, §4, §5, §6

OCT1 = target: T3, OCT1 (Homo sapiens, UniProt O15245); experiment: Inhibition of model substrate uptake in OCT1-overexpressing HEK293 cells; format: cell-based; parameters: expressed in transfected cells; host or cells: HEK293; conditions: for inhibition at 5 min, 20 μM / Sumatriptan inhibition [%] / selectivity ratio at 5 min: human; for Sumatriptan inhibition [%]: pH 7.4; for selectivity ratio at 5 min: ratio of the IC50 values of the two enantiomers of the drug, read-out: x-fold Stereoselectivity
T3 sequence (O15245 1-554): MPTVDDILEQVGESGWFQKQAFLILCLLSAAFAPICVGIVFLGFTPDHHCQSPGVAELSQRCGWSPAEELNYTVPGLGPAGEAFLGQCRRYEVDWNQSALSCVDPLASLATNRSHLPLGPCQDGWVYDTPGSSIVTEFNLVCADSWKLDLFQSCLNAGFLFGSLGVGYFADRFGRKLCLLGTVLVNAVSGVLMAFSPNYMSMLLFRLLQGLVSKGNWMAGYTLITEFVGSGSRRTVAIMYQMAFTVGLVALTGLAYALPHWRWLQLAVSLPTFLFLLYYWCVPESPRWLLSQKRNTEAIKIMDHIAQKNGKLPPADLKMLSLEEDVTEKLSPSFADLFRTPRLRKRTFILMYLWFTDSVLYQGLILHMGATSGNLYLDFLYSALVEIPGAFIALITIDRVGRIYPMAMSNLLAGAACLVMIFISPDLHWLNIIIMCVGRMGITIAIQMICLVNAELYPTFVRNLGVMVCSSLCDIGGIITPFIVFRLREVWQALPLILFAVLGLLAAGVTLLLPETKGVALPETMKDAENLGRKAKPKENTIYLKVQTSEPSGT
Experimental: Koepsell and Gorbulev (University of Würzburg, Germany).
Fluorescence quantification was performed in technical duplicates.

[1] = OCT2, 20 μM inhibitor, 2 μM (S,S)-ethambutol, 5 min
[2] = HEK293, 5 min, read-out: (S)-Zolmitriptan inhibition [%], OCT3, 20 μM inhibitor, 2 μM (S)-zolmitriptan, 5 min
[3] = HEK293, 5 min, read-out: (S,S)-Ethambutol inhibition [%], OCT3, 20 μM inhibitor, 2 μM (S,S)-ethambutol, 5 min
[4] = human, OCT2-overexpressing HEK293 cells, pH 7.4, probe (S,S)-ethambutol (2 μM), (S,S)-Ethambutol inhibition [%], OCT2, 20 μM inhibitor, 2 μM (S,S)-ethambutol, 5 min
[5] = human, OCT2-overexpressing HEK293 cells, pH 7.4, probe ASP+ (2 μM), ASP+ inhibition [%], OCT2, 20 μM inhibitor, 2 μM ASP+, 5 min
[6] = human, OCT2-overexpressing HEK293 cells, pH 7.4, probe N-ethyllidocaine (2 μM), N-Ethyllidocaine inhibition [%], OCT2, 20 μM inhibitor, 2 μM N-ethyllidocaine, 5 min
[7] = HEK293, OCT3, 20 μM inhibitor, 2 μM ASP+, 5 min, read-out: ASP+ inhibition [%]
[8] = OCT1-overexpressing HEK293 cells, pH 7.4, probe (S,S)-ethambutol (2 μM), (S,S)-Ethambutol inhibition [%], OCT1, 20 μM inhibitor, 2 μM (S,S)-ethambutol, 5 min
[9] = OCT1-overexpressing HEK293 cells, pH 7.4, probe ASP+ (2 μM), OCT1, 20 μM inhibitor, 2 μM ASP+, 5 min, mean of three experiments, read-out: ASP+ inhibition [%]
[10] = OCT1-overexpressing HEK293 cells, pH 7.4, probe sumatriptan (2 μM), OCT1, 20 μM inhibitor, 2 μM sumatriptan, 5 min, read-out: Sumatriptan inhibition [%]
[11] = OCT1, 20 μM inhibitor, 2 μM ASP+, 5 min, mean of three experiments
[12] = HEK293, 5 min, read-out: (S)-Zolmitriptan inhibition [%]
[13] = HEK293, 5 min, read-out: (S,S)-Ethambutol inhibition [%]
[14] = OCT1-overexpressing HEK293 cells, pH 7.4, OCT1

O=C(OC1C[N+]2(CCCOc3ccccc3)CCC1CC2)C(O)(c1cccs1)c1cccs1 [(R)-Aclidinium]
(S,S)-Ethambutol inhibition [%] (OCT2; [1]): -0.8% | inhibition at 5 min, 20 μM (OCT2; human, pH 7.4, ASP+ inhibition [%], OCT2, 20 μM inhibitor, 2 μM ASP+, 5 min): 108% | inhibition at 5 min, 20 μM (OCT2; human, pH 7.4, N-Ethyllidocaine inhibition [%], OCT2, 20 μM inhibitor, 2 μM N-ethyllidocaine, 5 min): 69.1% | inhibition at 20 µM (OCT3; [2]): 43.3% | inhibition at 20 µM (OCT3; [3]): 62.8% | inhibition at 20 µM (OCT3; HEK293, read-out: ASP+ inhibition [%], OCT3, 20 μM inhibitor, 2 μM ASP+, 5 min): 37.1% | inhibition at 5 min, 20 μM (OCT1; pH 7.4, (S,S)-Ethambutol inhibition [%], OCT1, 20 μM inhibitor, 2 μM (S,S)-ethambutol, 5 min): 98.8% | inhibition at 5 min, 20 μM (OCT1; pH 7.4, OCT1, 20 μM inhibitor, 2 μM ASP+, 5 min, mean of three experiments, read-out: ASP+ inhibition [%]): 71.6% | inhibition at 5 min, 20 μM (OCT1; pH 7.4, OCT1, 20 μM inhibitor, 2 μM sumatriptan, 5 min, read-out: Sumatriptan inhibition [%]): 93.6%

CCCCN1CCCC[C@@H]1C(=O)Nc1c(C)cccc1C [(R)-Bupivacaine]
IC50 (OCT2; IC50 [μM], OCT2, Table 1): 21.4 µM | inhibition at 5 min, 20 μM (OCT2; [4]): 56.3% | inhibition at 5 min, 20 μM (OCT2; [5]): 59.5% | inhibition at 5 min, 20 μM (OCT2; [6]): 64.4% | inhibition at 20 µM (OCT3; [2]): 51.8% | inhibition at 20 µM (OCT3; [3]): 50.3% | inhibition at 20 µM (OCT3; [7]): 31.4% | IC50 (OCT1; OCT1, Table 1, read-out: IC50): 10.2 µM | inhibition at 5 min, 20 μM (OCT1; [8]): 63.8% | inhibition at 5 min, 20 μM (OCT1; [9]): 32.8% | inhibition at 5 min, 20 μM (OCT1; [10]): 59.2%

COc1ccccc1OCCNC[C@@H](O)COc1cccc2[nH]c3ccccc3c12 [(R)-Carvedilol]
inhibition at 5 min, 20 μM (OCT2; [4]): 13.5% | inhibition at 5 min, 20 μM (OCT2; [5]): 99.6% | inhibition at 5 min, 20 μM (OCT2; [6]): 58.2% | inhibition at 20 µM (OCT3; [2]): 37.9% | inhibition at 20 µM (OCT3; [3]): 48.6% | inhibition at 20 µM (OCT3; [7]): 23.5% | inhibition at 5 min, 20 μM (OCT1; [8]): 100% | inhibition at 5 min, 20 μM (OCT1; [9]): 76.9% | inhibition at 5 min, 20 μM (OCT1; [10]): 96.6%

N[C@@H]1CONC1=O [(R)-Cycloserine]
(S,S)-Ethambutol inhibition [%] (OCT2; [1]): 5.0% | inhibition at 5 min, 20 μM (OCT2; [5]): 12.3% | inhibition at 5 min, 20 μM (OCT2; [6]): 13.6% | inhibition at 20 µM (OCT3; [3]): 7.4% | inhibition at 20 µM (OCT3; [7]): 17.8% | (S)-Zolmitriptan inhibition [%] (OCT3; OCT3, 20 μM inhibitor, 2 μM (S)-zolmitriptan, 5 min): -0.4% | (S,S)-Ethambutol inhibition [%] (OCT1; OCT1, 20 μM inhibitor, 2 μM (S,S)-ethambutol, 5 min): 17.6% | ASP+ inhibition [%] (OCT1; [11]): -0.8% | inhibition at 5 min, 20 μM (OCT1; [10]): 28%

C#CCN(C)[C@H](C)Cc1ccccc1 [(R)-Deprenyl]
IC50 (OCT2; IC50, OCT2, Table S5, 2 μM ASP+ as model substrate, 5 min): 2.4 µM | ASP+ inhibition [%] (OCT2; OCT2, 20 μM inhibitor, 2 μM ASP+, 5 min): 101.0% | N-Ethyllidocaine inhibition [%] (OCT2; OCT2, 20 μM inhibitor, 2 μM N-ethyllidocaine, 5 min): 52.3% | inhibition at 20 µM (OCT3; [12]): 18% | inhibition at 20 µM (OCT3; [13]): 24.2% | inhibition at 20 µM (OCT3; [7]): 12.6% | ASP+ inhibition [%] (OCT1; [11]): 21.6% | Sumatriptan inhibition [%] (OCT1): 62.3%

CCN[C@H](C)Cc1cccc(C(F)(F)F)c1 [(R)-Fenfluramine]
inhibition at 20 µM (OCT3; [12]): 55.9% | inhibition at 20 µM (OCT3; [13]): 40.7% | inhibition at 20 µM (OCT3; [7]): 7.6% | ASP+ inhibition [%] (OCT1; [11]): 38.4%

CCN[C@@H](C)Cc1cccc(C(F)(F)F)c1 [(S)-Fenfluramine]
(S)-Zolmitriptan inhibition [%] (OCT3): 51.9% | (S,S)-Ethambutol inhibition [%] (OCT3): 40.7% | ASP+ inhibition [%] (OCT3; OCT3, 20 μM inhibitor, 2 μM ASP+, 5 min): 12.7% | ASP+ inhibition [%] (OCT1; [11]): 41.9% | Sumatriptan inhibition [%] (OCT1): 87.1%

CN(C)CCOC(C)(c1ccccc1)c1ccccn1 (stereo not shown) [Doxylamine]
selectivity ratio at 5 min (OCT1; [14]): 1.4

CCCN[C@H]1CCc2nc(N)sc2C1 [Pramipexole]
selectivity ratio at 5 min (OCT2; human, OCT2-overexpressing HEK293 cells, pH 7.4): 4 | selectivity ratio at 5 min (OCT1; [14]): 1.6
